Experimental findings from patent US20250042889A1, “3CLPRO PROTEASE INHIBITOR” (SHANGHAI QILU PHARMACEUTICAL RESEARCH AND DEVELOPMENT …, priority 2021, published 2025) are described below.

Some results are limits rather than exact numbers.

This assay addresses SARS-COV-2 3CLpro/Mpro protease (Severe acute respiratory syndrome coronavirus 2 (2019-nCoV) (SARS-CoV-2), UniProt P0DTD1). The assay can be described thus: Inhibitory effect on SARS-COV-2 3CLpro/Mpro protease by fluorescence resonance energy transfer. The class given is biochemical. The conditions noted are these: activity intervals A-D, read-out: IC50 (nM), Inhibition on SARS-CoV-2 3CLpro/Mpro protease.

`CNc1cncc(C(=O)N2CCC[C@@H](Nc3c(C(=O)N4C[C@H](C)O[C@@H](C)C4)cc(Br)cc3[N+](=O)[O-])C2)c1` [Example 213]: the IC50 lay within 10 to 50 nM.

`C[C@@H]1CN(C(=O)c2cc(Br)cc([N+](=O)[O-])c2N[C@@H]2COCC[C@@H]2NC(=O)c2cncc3ccccc23)C[C@H](C)O1` [Example 214]: the IC50 was 10 to 50 nM. As for `COCCN1CCN(C(=O)c2cc(Br)cc([N+](=O)[O-])c2N[C@@H]2COCC[C@@H]2NC(=O)c2cncc3cc(Cl)ccc23)CC1` [Example 215], the figure is 10 to 50 nM; as for `CC(=O)Nc1cncc(C(=O)N2CCC[C@@H](Nc3c(C(=O)N4CCCCC4)cc(Br)cc3[N+](=O)[O-])C2)c1` [Example 216], 10 to 50 nM. In the case of `CNc1cncc(C(=O)N[C@H]2CCCC[C@H]2Nc2c(C(=O)N3C[C@H](C)O[C@@H](C)C3)cc(Br)cc2[N+](=O)[O-])c1` [Example 217], the IC50 lay in the range of 50 to 100 nM. On to `COCCN1CCN(C(=O)c2cc(Br)cc([N+](=O)[O-])c2N[C@@H]2COCC[C@@H]2NC(=O)c2cncc3ccccc23)CC1` [Example 218], for which the IC50 was in the range of 10 to 50 nM.

On to `CNc1cncc(C(=O)N2CCC[C@@H](Nc3c(C(=O)N4CCO[C@@H](C)C4)cc(Br)cc3[N+](=O)[O-])C2)c1` [Example 219], for which the IC50 is 10 to 50 nM. To `C[C@@H]1CN(C(=O)c2cc(Br)cc([N+](=O)[O-])c2N[C@H]2CN(C(=O)c3cncc(Br)c3)CC2(C)C)C[C@@H](C)O1` [Example 220] belongs 50 to 100 nM; to `CNc1cncc(C(=O)N[C@H]2CCOC[C@H]2Nc2c(C(=O)N3CCN(CCOC)CC3)cc(Br)cc2[N+](=O)[O-])c1` [Example 221], 10 to 50 nM; to `CNc1cncc(C(=O)N[C@H]2CCCC[C@H]2Nc2c(C(=O)N3CCN(CCOC)CC3)cc(Br)cc2[N+](=O)[O-])c1` [Example 222], 10 to 50 nM. Turning to `CNc1cncc(C(=O)N[C@H]2CCCC[C@H]2Nc2c(C(=O)N3C[C@@H](C)O[C@H](C)C3)cc(Br)cc2[N+](=O)[O-])c1` [Example 223], the IC50 fell in the range of 10 to 50 nM. As for `CNc1cncc(C(=O)N[C@H]2CCOC[C@H]2Nc2c(C(=O)N3C[C@H](C)O[C@@H](C)C3)cc(Br)cc2[N+](=O)[O-])c1` [Example 224], the figure is 10 to 50 nM; as for `C[C@H]1CN(C(=O)c2cc(Br)cc([N+](=O)[O-])c2N[C@H]2CN(C(=O)c3cncc(Br)c3)CC2(C)C)C[C@H](C)O1` [Example 225], less than 10 nM; as for `CNc1cncc(C(=O)N[C@H]2CCOC[C@H]2Nc2c(C(=O)N3CCC[C@@H](C)C3)cc(Br)cc2[N+](=O)[O-])c1` [Example 226], 10 to 50 nM.

With `COCCN1CCN(C(=O)c2cc(Br)cc([N+](=O)[O-])c2N[C@@H]2CCOC[C@@H]2NC(=O)c2cncc3ccccc23)CC1` [Example 227], the IC50 lay within 10 to 50 nM. As for `C[C@@H]1CN(C(=O)c2cc(Br)cc([N+](=O)[O-])c2N[C@@H]2COCC[C@@H]2NC(=O)c2cncc3cc(Cl)ccc23)C[C@H](C)N1` [Example 228], the figure is 10 to 50 nM; as for `CNc1cncc(C(=O)N2CCC[C@@H](Nc3c(C(=O)N4CCC5(CCOC5)CC4)cc(Br)cc3[N+](=O)[O-])C2)c1` [Example 230], less than 10 nM; as for `CNc1cncc(C(=O)N[C@H]2CCCC[C@H]2Nc2c(C(=O)N3CCO[C@@H](C)C3)cc(Br)cc2[N+](=O)[O-])c1` [Example 231], 10 to 50 nM. As to `CNc1cncc(C(=O)N2CCC[C@@H](Nc3c(C(=O)N4CC5COCC5C4)cc(Br)cc3[N+](=O)[O-])C2)c1` (stereo partly shown) [Example 232], the IC50 fell in the range of 10 to 50 nM. To `CNc1cncc(C(=O)N2CCC[C@@H](Nc3c(C(=O)N4C[C@@H](C)N(CCOC)[C@@H](C)C4)cc(Br)cc3[N+](=O)[O-])C2)c1` [Example 233] belongs 50 to 100 nM; to `CNc1cncc(C(=O)N[C@H]2CCOC[C@H]2Nc2c(C(=O)N3CCC[C@H](C)C3)cc(Br)cc2[N+](=O)[O-])c1` [Example 234], 10 to 50 nM.

Turning to `CNc1cncc(C(=O)N2CCC[C@@H](Nc3c(C(=O)N4CCN(C5CCOCC5)CC4)cc(Br)cc3[N+](=O)[O-])C2)c1` [Example 235], the IC50 was 10 to 50 nM. On to `CNc1cncc(C(=O)N2CCC[C@@H](Nc3c(C(=O)N4CCC5(CC4)COC5)cc(Br)cc3[N+](=O)[O-])C2)c1` [Example 236], for which the IC50 was in the range of 10 to 50 nM. Turning to `CNc1cncc(C(=O)N[C@H]2CCCC[C@H]2Nc2c(C(=O)N3CCO[C@H](C)C3)cc(Br)cc2[N+](=O)[O-])c1` [Example 237], the IC50 lay in the range of 10 to 50 nM. To `CNc1cncc(C(=O)N2CCC[C@@H](Nc3c(C(=O)N4CCN(CCOC)[C@H](C)C4)cc(Br)cc3[N+](=O)[O-])C2)c1` [Example 238] belongs 10 to 50 nM; to `CNc1cncc(C(=O)N2CCC[C@@H](Nc3c(C(=O)N4CCC[C@H](OC)C4)cc(Br)cc3[N+](=O)[O-])C2)c1` [Example 239], 10 to 50 nM; to `CNc1cncc(C(=O)N2CCC[C@@H](Nc3c(C(=O)N4CCC(O)(C(F)(F)F)CC4)cc(Br)cc3[N+](=O)[O-])C2)c1` [Example 240], 10 to 50 nM. To `CNc1cncc(C(=O)N2CCC[C@@H](Nc3c(C(=O)N4CCC(C)(O)CC4)cc(Br)cc3[N+](=O)[O-])C2)c1` [Example 241] belongs 10 to 50 nM; to `CNc1cncc(C(=O)N2CCC[C@@H](Nc3c(C(=O)N4C[C@H](C)N(CCOC)[C@@H](C)C4)cc(Br)cc3[N+](=O)[O-])C2)c1` [Example 242], 10 to 50 nM; to `CNc1cncc(C(=O)N2CCC[C@@H](Nc3c(C(=O)N4CC[C@H](OC)C4)cc(Br)cc3[N+](=O)[O-])C2)c1` [Example 244], 10 to 50 nM. As to `CNc1cncc(C(=O)N2C[C@H](Nc3c(C(=O)N4CCCCC4)cc(Br)cc3[N+](=O)[O-])C(C)(O)C2)c1` (stereo partly shown) [Example 245], the IC50 lay within 50 to 100 nM. As for `CC1(O)CN(C(=O)c2cncc(Br)c2)C[C@@H]1Nc1c(C(=O)N2CCCCC2)cc(Br)cc1[N+](=O)[O-]` (stereo partly shown) [Example 246], the figure is 10 to 50 nM; as for `CNc1cncc(C(=O)N2CCC[C@@H](Nc3c(C(=O)N4CCN(CCOC)[C@@H](C)C4)cc(Br)cc3[N+](=O)[O-])C2)c1` [Example 247], 10 to 50 nM; as for `CNc1cncc(C(=O)N2CCC[C@@H](Nc3c(C(=O)N4CCC(C)CC4)cc(Br)cc3[N+](=O)[O-])C2)c1` [Example 248], 10 to 50 nM. As for `COCCN1CCN(C(=O)c2cc(Br)cc([N+](=O)[O-])c2N[C@@H]2CCCN(C(=O)[C@H]3CC(=O)N[C@@H](C)C3)C2)CC1` [Example 249], the figure is 10 to 50 nM; as for `CNc1cncc(C(=O)N2CCC[C@@H](Nc3c(C(=O)N4CCC5(CCOCC5)CC4)cc(Br)cc3[N+](=O)[O-])C2)c1` [Example 250], 10 to 50 nM.

Consider `CNc1cncc(C(=O)N2CCC[C@@H](Nc3c(C(=O)N4C[C@H](C)C[C@H](C)C4)cc(Br)cc3[N+](=O)[O-])C2)c1` [Example 251], for which the IC50 fell in the range of 50 to 100 nM. Turning to `CNc1cncc(C(=O)N2CCC[C@@H](Nc3c(C(=O)N4CCC(C)(C)CC4)cc(Br)cc3[N+](=O)[O-])C2)c1` [Example 252], the IC50 is 10 to 50 nM. As for `CNc1cncc(C(=O)N2CCC[C@@H](Nc3c(C(=O)N4CCC[C@@H](C)C4)cc(Br)cc3[N+](=O)[O-])C2)c1` [Example 253], the figure is 50 to 100 nM; as for `C[C@@H]1CN(C(=O)c2cc(Br)cc([N+](=O)[O-])c2N[C@@H]2CCCN(C(=O)[C@H]3CC(=O)N[C@@H](C)C3)C2)C[C@H](C)O1` [Example 254], 10 to 50 nM.
